Article PMC5421785, “Citrullination only infrequently impacts peptide binding to HLA class II MHC” (PLoS ONE, 2017)
Square brackets hold non-standard residues; d marks the D form. Ends that are not written are not given here. Peptide text beside a SMILES is read from it. Cit = NC(=O)NCCC[C@H](N)C(=O)O

What was measured:
Test in all cases: HLA class II peptide binding, inhibition of radiolabeled peptide binding to purified MHC; as to IC50 DRB1*01:01: competition with radiolabeled peptide (0.1–1 nM); as to IC50 DRB1*04:01: competition with radiolabeled peptide (0.1–1 nM)
DRB1*09:01 = DRB1*09:01 (Homo sapiens, UniProt P01903+P01911, A100R/A103E/D57H/D86V/F55Y/F60I/F76Y/I96F/K127E/L162R/M171V/P40D/Q125H/Q99R/R33Q/R42F/S133A/S66N/T210M/V115G/W38K/Y107V/Y59G/Y89S); conditions: Other DR, competition with radiolabeled peptide, two-day incubation, three or more independent experiments
DRB1*15:01 = target: T1, DRB1*15:01 (Homo sapiens, UniProt P01903+P01911); conditions: SE-, competition with radiolabeled peptide, two-day incubation, three or more independent experiments
T1 construct: EBV transformed homozygous cell lines were used as sources of MHC molecules; endogenous in cells; host or cells: EBV transformed homozygous cell lines

DRB3*01:01 = target: T2, DRB3*01:01 (Homo sapiens, UniProt P01903+P79483); conditions: Other DR, competition with radiolabeled peptide, two-day incubation, three or more independent experiments
T2 construct: EBV transformed homozygous cell lines were used as sources of MHC molecules; endogenous in cells; host or cells: EBV transformed homozygous cell lines

HLA-DRB1*01:01 = target: T3, HLA-DRB1*01:01 (Homo sapiens, UniProt P01903+P01911, A100R/D57E/F55L/F60I/F76Y/I96L/L162R/M171V/P40L/Q125E/R42F/V115G/Y59C); conditions: read-out: IC50 DRB1*01:01; also: competition with radiolabeled peptide (0.1–1 nM)
T3 construct: EBV transformed homozygous cell lines were used as sources of MHC molecules; endogenous in cells; host or cells: EBV transformed homozygous cell lines

DRB1*11:01 = DRB1*11:01 (Homo sapiens, UniProt P01903+P01911, A100R/A169T/A87E/I96F/K41T/L162R/M171V/P40S/Q125H/Q178H/Q39Y/Q99D/R42S/S66Y/T262R/V115G/W38E); conditions: SE-, competition with radiolabeled peptide, two-day incubation, three or more independent experiments
DRB1*04:02 = DRB1*04:02 (Homo sapiens, UniProt P01903+P01911, A100E/A169T/F76Y/K127E/L162R/M171V/N62H/P40V/Q125Y/Q99D/R42H/S133A/S149N/S66Y/V209L/W38E); conditions: SE-, competition with radiolabeled peptide, two-day incubation, three or more independent experiments
DRB1*13:02 = DRB1*13:02 (Homo sapiens, UniProt P01903+P01911, A100E/A169T/K41T/L162R/M171V/P40S/Q125H/Q178H/Q39Y/Q99D/R42S/S66N/T262R/V115G/W38E/Y61H); conditions: SE-, competition with radiolabeled peptide, two-day incubation, three or more independent experiments
DRB1*08:02 = DRB1*08:02 (Homo sapiens, UniProt P01903+P01911, A100R/A103L/A169T/F76Y/H45Y/I96F/K41T/L162R/M171V/P40S/Q125H/Q178H/Q39Y/Q99D/R218S/R42G/S66Y/V115G/W38E); conditions: Other DR, competition with radiolabeled peptide, two-day incubation, three or more independent experiments
DRB1*04:04 = DRB1*04:04 (Homo sapiens, UniProt P01903+P01911, A100R/A169T/F76Y/I96L/K127E/L162R/M171V/N62H/P40V/Q125Y/R42H/S133A/S149N/S66Y/V209L/W38E); conditions: SE+, competition with radiolabeled peptide, two-day incubation, three or more independent experiments
DQB1*03:01 = DQB1*03:01 (Homo sapiens, UniProt P01909+P01920); conditions: DQ, competition with radiolabeled peptide, two-day incubation, three or more independent experiments
DRB3*02:02 = DRB3*02:02 (Homo sapiens, UniProt P01903+P79483, A212P/D57E/F66Y/L67A/R103Q/R218S/R40L/S89Y/T80R/V86D/Y55F/Y59H); conditions: Other DR, competition with radiolabeled peptide, two-day incubation, three or more independent experiments
DRB1*10:01 = DRB1*10:01 (Homo sapiens, UniProt P01903+P01911, A100R/A169T/D57E/F55L/F60V/F69Y/F76Y/I96L/L162R/M171V/P40V/Q260P/Q39E/Q99R/R195Q/R42F/S149N/S66Y/T210M/V115G/V67A/W38E/Y59R/Y61H); conditions: SE+, competition with radiolabeled peptide, two-day incubation, three or more independent experiments
DRB1*12:01 = DRB1*12:01 (Homo sapiens, UniProt P01903+P01911, A100R/A169T/D57E/D86V/F55L/H45Y/K41T/L162R/M171V/P40S/Q125H/Q178H/Q39Y/Q99D/R42G/S66L/T262R/V114A/V67L/W38E/Y59H/Y61H/Y89S); conditions: SE-, competition with radiolabeled peptide, two-day incubation, three or more independent experiments
DRB4*01:01 = target: T4, DRB4*01:01 (Homo sapiens, UniProt P01903+P13762, G164S); conditions: Other DR, competition with radiolabeled peptide, two-day incubation, three or more independent experiments
T4 construct: EBV transformed homozygous cell lines were used as sources of MHC molecules; endogenous in cells; host or cells: EBV transformed homozygous cell lines

DPB1*04:01 = target: T5, DPB1*04:01 (Homo sapiens, UniProt P04440+P20036); conditions: DP; purified MHC, competition with radiolabeled peptide, two-day incubation, three or more independent experiments
T5 construct: EBV transformed homozygous cell lines were used as sources of MHC molecules; endogenous in cells; host or cells: EBV transformed homozygous cell lines
T5 sequence (P04440 30-258): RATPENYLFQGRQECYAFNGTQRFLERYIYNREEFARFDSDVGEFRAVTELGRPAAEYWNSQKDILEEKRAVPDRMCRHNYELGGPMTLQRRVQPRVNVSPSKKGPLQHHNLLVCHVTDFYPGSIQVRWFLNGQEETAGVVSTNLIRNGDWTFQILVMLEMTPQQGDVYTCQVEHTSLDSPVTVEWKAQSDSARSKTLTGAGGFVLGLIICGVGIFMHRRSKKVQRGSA
T5 sequence (P20036 29-260 partner): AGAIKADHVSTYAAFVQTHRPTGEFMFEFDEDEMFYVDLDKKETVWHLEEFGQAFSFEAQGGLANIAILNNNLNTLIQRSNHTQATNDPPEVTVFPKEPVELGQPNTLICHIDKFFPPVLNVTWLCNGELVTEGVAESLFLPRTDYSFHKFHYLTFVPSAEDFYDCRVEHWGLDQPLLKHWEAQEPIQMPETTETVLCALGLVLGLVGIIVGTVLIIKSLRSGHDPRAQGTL

HLA-DRB1*04:01 = target: T6, HLA-DRB1*04:01 (Homo sapiens, UniProt P01903+P01911, A100K/A169T/F76Y/I96L/K127E/L162R/M171V/N62H/P40V/Q125Y/R42H/S133A/S149N/S66Y/V115G/V209L/W38E); conditions: read-out: IC50 DRB1*04:01; also: competition with radiolabeled peptide (0.1–1 nM)
T6 construct: EBV transformed homozygous cell lines were used as sources of MHC molecules; endogenous in cells; host or cells: EBV transformed homozygous cell lines

DRB1*03:01 = DRB1*03:01 (Homo sapiens, UniProt P01903+P01911, A100K/A102G/A103R/A169T/F55Y/I96L/K41T/L162R/M171V/P40S/Q125H/Q178H/Q39Y/R42S/S66N/T106N/T262R/W38E/Y61H); conditions: Other DR, competition with radiolabeled peptide, two-day incubation, three or more independent experiments
DRB1*04:05 = DRB1*04:05 (Homo sapiens, UniProt P01903+P01911, A100R/A169T/D86S/F76Y/I96L/K127E/L162R/M171V/N62H/P40V/Q125Y/R42H/S133A/S149N/S66Y/V115G/V209L/W38E); conditions: SE+, competition with radiolabeled peptide, two-day incubation, three or more independent experiments
DRB1*16:02 = DRB1*16:02 (Homo sapiens, UniProt P01903+P01911, A100R/F76Y/I96L/Q99D/V115G); conditions: SE-, competition with radiolabeled peptide, two-day incubation, three or more independent experiments
DRB1*07:01 = DRB1*07:01 (Homo sapiens, UniProt P01903+P01911, A100R/A102G/A103Q/D57E/D86V/E43K/F76Y/K127E/L162R/M171V/P40G/Q125H/Q99D/R33Q/R42Y/R54Q/S133A/S66F/T210M/V115G/Y107V/Y59L/Y89S); conditions: Other DR, competition with radiolabeled peptide, two-day incubation, three or more independent experiments
DRB5*01:01 = target: T7, DRB5*01:01 (Homo sapiens, UniProt P01903+Q30154); conditions: Other DR, competition with radiolabeled peptide, two-day incubation, three or more independent experiments
T7 construct: EBV transformed homozygous cell lines were used as sources of MHC molecules; endogenous in cells; host or cells: EBV transformed homozygous cell lines

Chain of DQB1*03:01 (P01920 33-261, other chains not shown): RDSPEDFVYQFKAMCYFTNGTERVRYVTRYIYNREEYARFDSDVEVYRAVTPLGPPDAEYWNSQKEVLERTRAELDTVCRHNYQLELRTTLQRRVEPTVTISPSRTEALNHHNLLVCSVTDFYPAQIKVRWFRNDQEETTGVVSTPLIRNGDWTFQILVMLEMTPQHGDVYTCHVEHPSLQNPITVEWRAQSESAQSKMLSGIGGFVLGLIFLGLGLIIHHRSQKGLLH

Compound | IC50 (DRB1*09:01) [µM] | IC50 (DRB1*15:01) [µM] | IC50 (DRB3*01:01) [µM] | IC50 (HLA-DRB1*01:01) [µM] | IC50 (DRB1*11:01) [µM] | IC50 (DRB1*04:02) [µM] | IC50 (DRB1*13:02) [µM] | IC50 (DRB1*08:02) [µM] | IC50 (DRB1*04:04) [µM] | IC50 (DQB1*03:01) [µM] | IC50 (DRB3*02:02) [µM] | IC50 (DRB1*10:01) [µM] | IC50 (DRB1*12:01) [µM] | IC50 (DRB4*01:01) [µM] | IC50 (DPB1*04:01) [µM] | IC50 (HLA-DRB1*04:01) [µM] | IC50 (DRB1*03:01) [µM] | IC50 (DRB1*04:05) [µM] | IC50 (DRB1*16:02) [µM] | IC50 (DRB1*07:01) [µM] | also measured
CC(C)C[C@H](NC(=O)[C@H](CCCNC(=N)N)NC(=O)[C@@H](NC(=O)[C@H](C)NC(=O)[C@@H](N)CO)C(C)C)C(=O)N[C@@H](CCCNC(N)=O)C(=O)N[C@@H](CO)C(=O)N[C@@H](CO)C(=O)N[C@H](C(=O)N1CCC[C@H]1C(=O)NCC(=O)N[C@H](C(=O)N[C@@H](CCCNC(=N)N)C(=O)O)C(C)C)C(C)C [Vimentin 66–78 Cit] (H-SAVRL[Cit]SSVPGVR-OH) | 0.353 | 0.0054 | > 30 | 0.0095 | 8.92 | 0.014 | 15 | 0.275 | 0.009 | 2.01 | > 30 | 0.035 | 2.22 | 0.004 | > 30 | 0.0018 | 25.9 | 0.054 | 0.118 | 7.31 | IC50 (DRB5*01:01): 1.36 µM
LQYMRADQAAGGLR [Collagen II 1236–1249 WT] | 0.315 | 1.46 | 0.068 | 0.081 | 9.86 | 0.118 | 3.92 | 1.04 | 0.102 | 12.8 | 0.262 | 0.375 | > 30 | 0.08 | > 30 | 0.0097 | 0.159 | 1.77 | 23.1 | 29.6 | IC50 (DRB5*01:01): 8.88 µM
NQDFTNRINKLKNS [Fibrinogen 78–91 WT] | 11.1 | > 30 | > 30 | > 30 | 13.9 | > 30 | > 30 | 0.457 | 2.05 | > 30 | > 30 | 3.58 | 27.8 | 7.7 | > 30 | > 30 | > 30 | 12.8 | 8.43 | > 30 | IC50 (DRB5*01:01): 0.023 µM
SAVRLRSSVPGVR [Vimentin 66–78 WT] | 1.41 | 0.0041 | > 30 | 3.26 | 11.8 | 0.927 | 11.4 | 0.053 | 0.206 | 2.1 | 9.09 | 5.17 | 15.9 | 2.02 | > 30 | 13.1 | 12.2 | 3.96 | 1.08 | > 30 | IC50 (DRB5*01:01): 2.23 µM
VVLLVATEGRVRVNSAYQDK [Aggrecan 84–103 WT] | 0.73 | 1.01 | 8.46 | 0.155 | 0.52 | 0.501 | 0.268 | 3.96 | 0.565 | 0.229 | 0.245 | 0.643 | 1.05 | 0.955 | 26.2 | 0.713 | 0.53 | 0.183 | 20.5 | 3.03 | IC50 (DRB5*01:01): 0.016 µM
